Where a name gives a salt, the structure may show the parent alone.

The values that follow come from patent publication US5498609A, “Benzoazepinyl compounds as oxytocin and vasopressin antagonists” (Otsuka Pharmaceutical Company, Limited, priority 1992, dated 1996).

Test [1] addresses T1, V2 receptor (Rattus norvegicus, UniProt Q00788).
T1 construct: Using rat kidney plasma membrane preparations; from tissue; host or cells: rat kidney plasma membrane
Put plainly: biochemical. Particulars: rat kidney plasma membrane, [3H]-Arg-vasopressin, 4° C., pH 8.0, read-out: IC50 in V2 receptor binding assay. The procedure:
Experiment 2: V2 receptor binding assay
Using rat kidney plasma membrane preparations prepared according to O. Hechter's method [cf: J. Bio. Chem., 253, 3211 (1978)], the plasma membrane (100000 dpm, 4×10^-10 M) of [^3 H]-Arg-vasopressin and a test compound (0.6 mg, 10^-10 to 10^-5 M) are incubated at 4° C. for 3 hours in 100 mM Tris-HCl buffer (pH: 8.0) (250 μl) containing 5 mM MgCl2, 1 mM EDTA and 0.1% BSA. After incubation, the mixture is filtered using the glass filter (GF/F) so as to separate the membrane preparation binding with vasopressin and then washed twice with the buffer (each 5 ml). This glass filter is taken out and mixed with liquid scintillation cocktail. The amount of [^3 H]-vasopressin binding with the membrane is measured by liquid scintillation counter and the rate of the inhibitory effect of the test compound is estimated according to the following equation. [formula] C1 : The amount of [^3 H]-vasopressin binding with the membrane in the presence of the test compound (known amount)
(§1) C0 : The amount of [^3 H]-vasopressin binding with the membrane in the absence of the test compound
(§2) B1 : The amount of [^3 H]-vasopressin binding with the membrane in the presence of the excess amount of vasopressin (10^-6 M)
(§3) The results are expressed as IC50 value, which is the concentration of the test compound required to achieve the inhibitory effect in the rate of 50%.

For test [2], the target named is V1 receptor (Rattus norvegicus, UniProt P30560). Briefly: biochemical. The note with it: rat liver plasma membrane, [3H]-Arg-vasopressin, 37° C., 10 minutes, pH 8.0; read-out: IC50 in V1 receptor binding assay. How it is done:
Experiment 1: V1 receptor binding assay
Using rat liver plasma membrane preparations prepared according to Ichihara's method [cf: Akira Ichihara, J. Bio. Chem., 258, 9283 (1983)], the plasma membrane (50000 dpm, 2×10^-10 M) of [^3 H]-Arg-vasopressin and a test compound (60 μg, 10^-8 to 10^-4 M) are incubated at 37° C. for 10 minutes in 100 mM Tris-HCl buffer (pH: 8.0) (250 μl) containing 5 mM MgCl2, 1 mM EDTA and 0.1% BSA. After incubation, the mixture is filtered three times using the glass filter (GF/F) so as to separate the membrane preparation binding with vasopressin and then washed with the buffer (5 ml). This glass filter is taken out and mixed with liquid scintillation cocktail. The amount of [^3 H]-vasopressin binding with the membrane is measured by liquid scintillation counter and the rate of the inhibitory effect of the test compound is estimated according to the following equation. [formula] C1 : The amount of [^3 H]-vasopressin binding with the membrane in the presence of the test compound (known amount)
as §1, §2, §3

T1 sequence (Q00788 whole entry): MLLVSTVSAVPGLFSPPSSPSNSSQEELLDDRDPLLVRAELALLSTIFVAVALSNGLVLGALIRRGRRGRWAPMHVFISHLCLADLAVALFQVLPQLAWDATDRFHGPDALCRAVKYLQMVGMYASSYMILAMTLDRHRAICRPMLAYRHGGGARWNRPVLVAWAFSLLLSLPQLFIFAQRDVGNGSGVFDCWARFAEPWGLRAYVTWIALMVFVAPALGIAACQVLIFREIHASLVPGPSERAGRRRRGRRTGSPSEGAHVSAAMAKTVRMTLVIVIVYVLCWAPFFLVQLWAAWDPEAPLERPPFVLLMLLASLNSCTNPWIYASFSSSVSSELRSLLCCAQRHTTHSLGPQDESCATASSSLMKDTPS
Chain of V1 receptor (P30560 whole entry): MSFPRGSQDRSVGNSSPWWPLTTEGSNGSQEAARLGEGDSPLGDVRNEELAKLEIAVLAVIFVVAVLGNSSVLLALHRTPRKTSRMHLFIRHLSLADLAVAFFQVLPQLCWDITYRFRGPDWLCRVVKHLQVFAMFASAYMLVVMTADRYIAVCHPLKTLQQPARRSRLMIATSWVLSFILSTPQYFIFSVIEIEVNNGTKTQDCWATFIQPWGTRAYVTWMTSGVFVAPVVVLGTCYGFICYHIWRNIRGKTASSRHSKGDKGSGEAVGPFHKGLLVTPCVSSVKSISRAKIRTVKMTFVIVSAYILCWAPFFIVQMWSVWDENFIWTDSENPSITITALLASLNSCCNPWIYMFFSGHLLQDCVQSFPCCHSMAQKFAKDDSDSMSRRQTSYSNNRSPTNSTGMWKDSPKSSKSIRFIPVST

The IC50 is the point on the concentration scale where inhibition reaches its midpoint. For the compound `Cc1ccccc1C(=O)Nc1ccc(C(=O)N2CCCC(O)c3cc(Cl)ccc32)cn1` (stereo not shown) [Compound of Ex. 25], the IC50 came out at 4 nM in test [1] and 14 nM in test [2].
The corresponding values for `Cc1cccc(C(=O)Nc2ccc(C(=O)N3CCCC(O)c4cc(Cl)ccc43)cn2)c1` (stereo not shown) [Compound of Ex. 26] are 21 nM and 78 nM.
The corresponding values for `COc1ccccc1C(=O)Nc1ccc(C(=O)N2CCCC(O)c3cc(Cl)ccc32)cn1` (stereo not shown) [Compound of Ex. 28] are 170 nM and 77 nM.
The corresponding values for `O=C(Nc1ccc(C(=O)N2CCCC(O)c3cc(Cl)ccc32)cn1)c1ccccc1[N+](=O)[O-]` (stereo not shown) [Compound of Ex. 29] are 11 nM and 24 nM.
Consider `O=C(Nc1ccc(C(=O)N2CCCC(O)c3cc(Cl)ccc32)cn1)c1cccs1` (stereo not shown) [Compound of Ex. 31], for which the figures for the IC50 in test [1] and in test [2] were 120 nM and 57 nM, respectively.
The matching figures for `O=C(Nc1ccc(C(=O)N2CCCC(O)c3cc(Cl)ccc32)cn1)C1CCCCC1` (stereo not shown) [Compound of Ex. 32]: 16 nM and 12 nM.
The matching figures for `Cc1ccccc1CC(=O)Nc1ccc(C(=O)N2CCCC(O)c3cc(Cl)ccc32)cn1` (stereo not shown) [Compound of Ex. 33]: 3 nM and 7 nM.
Consider `Cc1ccccc1C(=O)Nc1ccc(C(=O)N2CCCC(O)(CO)c3cc(Cl)ccc32)cn1` (stereo not shown) [Compound of Ex. 34], for which the IC50 is 16 nM in test [1] and 66 nM in test [2].
As to `Cc1ccccc1C(=O)Nc1ccc(C(=O)N2CCCC(OCC(=O)N3CCN(C)CC3)c3cc(Cl)ccc32)cn1` (stereo not shown) [Compound of Ex. 35], the IC50 in test [1] is 7 nM; in test [2] it was 20 nM.
The corresponding values for `Cc1ccccc1C(=O)Nc1ccc(C(=O)N2CCCC(OCCO)c3cc(Cl)ccc32)cn1` (stereo not shown) [Compound of Ex. 36, 7-chloro-5-(2-hydroxyethoxy)-1-[6-(2-methylbenzoylamino)nicotinoyl]-2,3,4,5-tetrahydro-1H-benzazepine] are 3 nM and 43 nM.
The corresponding values for `CC(=O)NCCOC1CCCN(C(=O)c2ccc(NC(=O)c3ccccc3C)nc2)c2ccc(Cl)cc21` (stereo not shown) [Compound of Ex. 38, 7-chloro-5-(2-acetylaminoethoxy)-1-[6-(2-methylbenzoylamino)nicotinoyl]-2,3,4,5-tetrahydro-1H-benzazepine] are 3 nM and 26 nM.
For the compound `Cc1ccccc1C(=O)Nc1ccc(C(=O)N2CCCC(CC(=O)O)c3cc(Cl)ccc32)cn1` (stereo not shown) [Compound of Ex. 39], the IC50 turned out to be 68 nM in test [1] and 910 nM in test [2].
As to `Cc1ccccc1C(=O)Nc1ccc(C(=O)N2CCCC(CC(=O)N(C)C)c3cc(Cl)ccc32)cn1` (stereo not shown) [Compound of Ex. 41], the IC50 was found to be 4 nM in test [1] and 22 nM in test [2].
The corresponding values for `Cc1ccccc1C(=O)Nc1ccc(C(=O)N2CCCC(CC(=O)N3CCN(C)CC3)c3cc(Cl)ccc32)cn1` (stereo not shown) [Compound of Ex. 42] are 3 nM and 30 nM.
The corresponding values for `Cc1ccccc1C(=O)Nc1ccc(C(=O)N2CCN(C)Cc3cc(Cl)ccc32)cn1` [Compound of Ex. 47] are 89 nM and 150 nM.
The corresponding values for `Cc1ccccc1C(=O)Nc1ccc(C(=O)N2CCCC(O)c3cc(Cl)ccc32)s1` (stereo not shown) [Compound of Ex. 48] are 300 nM and 67 nM.
As to `Cc1ccccc1C(=O)Nc1cnc(C(=O)N2CCCC(O)c3cc(Cl)ccc32)s1` (stereo not shown) [Compound of Ex. 49], the IC50 in test [1] was 250 nM; in test [2], 41 nM.
The matching figures for `Cc1ccccc1C(=O)Nc1ccc(C(=O)N2CCCC(O)c3cc(Cl)ccc32)nc1` (stereo not shown) [Compound of Ex. 50]: 61 nM and 78 nM.
`CN1CCCN(C(=O)c2ccc(NC(=O)c3ccccc3Cl)nc2)c2ccc(Cl)cc21` [Compound of Ex. 53]: the IC50 stood at 19 nM in test [1] and 55 nM in test [2].
The corresponding values for `COC1CCCN(C(=O)c2ccc(NC(=O)c3ccccc3Br)nc2)c2ccc(Cl)cc21` (stereo not shown) [Compound of Ex. 73] are 1.9 nM and 12 nM.
Turning to `O=C(Nc1ccc(C(=O)N2CCCC(NC3CC3)c3cc(Cl)ccc32)cn1)c1ccccc1Cl` (stereo not shown) [Compound of Ex. 78], the IC50 amounted to 10 nM in test [1] and 17 nM in test [2].
The corresponding values for `CNC1CCCN(C(=O)c2ccc(NC(=O)c3ccccc3C)nc2)c2ccc(Cl)cc21` (stereo not shown) [Compound of Ex. 79] are 3.7 nM and 41 nM.
The corresponding values for `CN(C)CCOc1ccccc1C(=O)Nc1ccc(C(=O)N2CCCCc3cc(Cl)ccc32)cn1` [Compound of Ex. 96, 7-chloro-1-{6-[2-(2-dimethylaminoethoxy)benzoyl-amino]nicotinoyl}-2,3,4,5-tetrahydro-1H-benzazepine dihydrochloride] are 300 nM and 43 nM.
The matching figures for `CCN(CC)CCN(C)C(=O)CC1CCCN(C(=O)c2ccc(NC(=O)c3ccccc3C)nc2)c2ccc(Cl)cc21` (stereo not shown) [Compound of Ex. 105]: 3 nM and 9 nM.
As to `O=C(Nc1ccc(C(=O)N2CCCC(CC(=O)N3CCNCC3)c3cc(Cl)ccc32)cn1)c1ccccc1Cl` (stereo not shown) [Compound of Ex. 116, 7-chloro-5-(1-piperazinyl)carboxymethyl-1-[6-(2-chlorobenzoylamino)nicotinoyl]-2,3,4,5-tetrahydro-1H-benzazepine], the IC50 in test [1] turned out to be 3.1 nM; in test [2], 12 nM.
On to `CC(=O)N1CCN(CCC2CCCN(C(=O)c3ccc(NC(=O)c4ccccc4Cl)nc3)c3ccc(Cl)cc32)CC1` (stereo not shown) [Compound of Ex. 128], for which the IC50 in test [1] was 4.6 nM; in test [2] it was 16 nM.
The corresponding values for `O=C(Nc1ccc(C(=O)N2CCCC(CCn3ccnc3)c3cc(Cl)ccc32)cn1)c1ccccc1Cl` (stereo not shown) [Compound of Ex. 129] are 4.8 nM and 31 nM.
As to `Cc1ccccc1C(=O)Nc1ccc(C(=O)N2CCCC(CCNC(C)C)c3cc(Cl)ccc32)cn1` (stereo not shown) [Compound of Ex. 139], the figures for the IC50 in test [1] and in test [2] were 4.1 nM and 16 nM, respectively.
The matching figures for `Cc1ccccc1C(=O)Nc1ccc(C(=O)N2CCCC(CCn3cncn3)c3cc(Cl)ccc32)cn1` (stereo not shown) [Compound of Ex. 140]: 5.6 nM and 31 nM.
The matching figures for `CC(=O)NCCC1CCCN(C(=O)c2ccc(NC(=O)c3ccccc3C)nc2)c2ccc(Cl)cc21` (stereo not shown) [Compound of Ex. 143, 7-chloro-5-(2-acetylamino-ethyl)-1-[6-(2-methylbenzoylamino)nicotinoyl]-2,3,4,5-tetrahydro-1H-benzazepine]: 3.1 nM and 6.6 nM.
For the compound `Cc1ccccc1C(=O)Nc1ccc(C(=O)N2CCC(O)Cc3cc(Cl)ccc32)cn1` (stereo not shown) [Compound of Ex. 148], the results for the IC50 in test [1] and in test [2] were 17 nM and 27 nM, respectively.
As for `O=C(O)COC1CCCN(C(=O)c2ccc(NC(=O)c3ccccc3Cl)nc2)c2ccc(Cl)cc21` (stereo not shown) [Compound of Ex. 169], the IC50 was found to be 19 nM in test [1] and 117 nM in test [2].
The matching figures for `NC(=O)COC1CCCN(C(=O)c2ccc(NC(=O)c3ccccc3Cl)nc2)c2ccc(Cl)cc21` (stereo not shown) [Compound of Ex. 171]: 3.1 nM and 7.1 nM.
The matching figures for `CN(C)C(=O)COC1CCCN(C(=O)c2ccc(NC(=O)c3ccccc3Cl)nc2)c2ccc(Cl)cc21` (stereo not shown) [Compound of Ex. 173]: 5.3 nM and 24 nM.
For the compound `CCN(CC)CCN(C)C(=O)COC1CCCN(C(=O)c2ccc(NC(=O)c3ccccc3Cl)nc2)c2ccc(Cl)cc21` (stereo not shown) [Compound of Ex. 175], the IC50 in test [1] was found to be 2.7 nM; in test [2], 8.4 nM.
The corresponding values for `Cc1ccccc1C(=O)Nc1ccc(C(=O)N2CCCC(OCCn3ccnc3)c3cc(Cl)ccc32)cn1` (stereo not shown) [Compound of Ex. 178] are 8 nM and 29 nM.
The corresponding values for `CC(=O)N1CCN(CCOC2CCCN(C(=O)c3ccc(NC(=O)c4ccccc4Cl)nc3)c3ccc(Cl)cc32)CC1` (stereo not shown) [Compound of Ex. 181] are 4.4 nM and 15 nM.
The matching figures for `Cc1ccccc1C(=O)Nc1ccc(C(=O)N2CCCC(OCCN3CCOCC3)c3cc(Cl)ccc32)cn1` (stereo not shown) [Compound of Ex. 182]: 10 nM and 28 nM.
